From patent US10577400B2, “Method of manufacturing recombinant lectin protein and recombinant lectin protein manufactured by using the same” (NATIONAL MARINE BIODIVERSITY INSTITUTE OF KOREA, priority 2017, dated 2020) come the findings set out here.

Values after ≈ are worked out from the molar mass of the structure shown. Like-named read-outs stand apart in the source and are kept apart here. Marks after values point to notes of the source that are not given here.

The subject of experiment [1] is Native BPL3. Briefly: Inhibition of hemagglutination activity of Native BPL3 by sugars. It is filed as cell-based, Bryopsis plumosa.
In experiment [2] the test system is rD2BPL3. Briefly: Inhibition of hemagglutination activity of rD2BPL3 (refolded rBPL3) by sugars. The experiment is classed as cell-based, Bryopsis plumosa. Conditions: for Minimum inhibitory concentration: inhibition of hemagglutination activity of rD2BPL3; for Concentration at which hemagglutination activity of rBPL3 was inhibited: refolded rBPL3, FIG. 8, running text. How it is done: FIG. 8 is a photograph showing that the activity of the refolded rBPL3 is inhibited by N-acetyl D-glucosamine and N-acetyl D-glactosamine. Referring to FIG. 8, experiments on inhibition of hemagglutination activity for 10 kinds of sugars including GlcNAc and GaINAc which inhibited hemagglutination activity of Native BPL3 were conducted.

Experiment [3] deals with Fetuin. Briefly: cell-based or functional assay.
Experiment [4] in a line: Glycan binding specificity, RayBio Glycan Array 100. As to the method:
Affinity with glycans was measured using RayBio® Glycan Array 100. The rBPL3 and the Native BPL3 were conjugated with biotin and then dialyzed to remove unreacted biotin.
FIG. 9 is a graph for comparing glycan binding specificities of Native BPL3, rD1BPL3, and rD2BPL3.

Where [5] appears, read: biotin-conjugated lectin, FIG. 9.

The molecule `CC(=O)N[C@H]1C(O)O[C@H](CO)[C@@H](O)[C@@H]1O` (stereo partly drawn) [N-acetyl-d-glucosamine] came in with a Minimum inhibitory concentration in experiment [1] of 125 mM (≈ 27.7 mg/mL). Moreover, in experiment [2], the Minimum inhibitory concentration is 62.5 mM (≈ 13.8 mg/mL) and the “Concentration at which hemagglutination activity of rBPL3 was inhibited” value is 125 mM.

As for `O=C[C@H](O)[C@@H](O)[C@@H](O)[C@H](O)CO` [d-Galactose], the Minimum inhibitory concentration result in experiment [1] and in experiment [2] was “NI (the absence of inhibition at 500 mM)” throughout.

Regarding “Native BPL3 (Bryopsis plumosa lectin 3 derived from Bryopsis plumosa)”, the Minimum inhibitory concentration (inhibition of hemagglutination activity) in experiment [3] was 19.5 µg/mL.

As for `OC[C@H]1O[C@H](O[C@H]2[C@H](O)[C@@H](O)[C@H](O)O[C@@H]2CO)[C@H](O)[C@@H](O)[C@@H]1O` [d-Maltose], the Minimum inhibitory concentration entry in experiment [1] and in experiment [2] was “NI (the absence of inhibition at 500 mM)” in each case.

As for `C[C@@H]1OC(O)[C@@H](O)[C@H](O)[C@@H]1O` (stereo partly drawn) [1-Fucose], the Minimum inhibitory concentration entry in experiment [1] and in experiment [2] was “NI (the absence of inhibition at 500 mM)” in each case.

`O=C(CO)[C@@H](O)[C@H](O)[C@H](O)CO` [d-Fructose]: the Minimum inhibitory concentration entry in experiment [1] and in experiment [2] was “NI (the absence of inhibition at 500 mM)” throughout.

As for `O=C[C@@H](O)[C@@H](O)[C@H](O)[C@H](O)CO` [d-Mannose], the Minimum inhibitory concentration entry in experiment [1] is given as “NI (the absence of inhibition at 500 mM)”; in experiment [1] (listed as α-Man) it was “not inhibited”; in experiment [2], “NI (the absence of inhibition at 500 mM)”; in experiment [2] (listed as α-Man) it was “not inhibited”.

On to `CC(=O)N[C@H]1C(O)O[C@H](CO)[C@H](O)[C@@H]1O` (stereo partly drawn) [N-acetyl-d-galactosamine], for which the Minimum inhibitory concentration in experiment [1] is on record as 62.5 mM (≈ 13.8 mg/mL); in experiment [2], 31.25 mM (≈ 6.91 mg/mL). In experiment [2], the “Concentration at which hemagglutination activity of rBPL3 was inhibited” value is recorded as 62.5 mM.

For `O=C[C@H](O)[C@@H](O)[C@H](O)[C@H](O)CO` [d-Glucose], the Minimum inhibitory concentration result in experiment [1] and in experiment [2] was “NI (the absence of inhibition at 500 mM)” each time.

For the molecule `OC[C@H]1O[C@@H](O[C@H]2[C@H](O)[C@@H](O)[C@H](O)O[C@@H]2CO)[C@H](O)[C@@H](O)[C@H]1O` [β-Lactose], the Minimum inhibitory concentration entry in experiment [1] and in experiment [2] was “NI (the absence of inhibition at 500 mM)” each time.

B1: Fetuin (protein, UniProt P12763 19-359, looked up)
Alpha-2-HS-glycoprotein: IPLDPVAGYKEPACDDPDTEQAALAAVDYINKHLPRGYKHTLNQIDSVKVWPRRPTGEVYDIEIDTLETTCHVLDPTPLANCSVRQQTQHAVEGDCDIHVLKQDGQFSVLFTKCDSSPDSAEDVRKLCPDCPLLAPLNDSRVVHAVEVALATFNAESNGSYLQLVEISRAQFVPLPVSVSVEFAVAATDCIAKEVVDPTKCNLLAEKQYGFCKGSVIQKALGGEDVRVTCTLFQTQPVIPQPQPDGAEAEAPSAVPDAAGPTPSAAGPPVASVVVGPSVVAVPLPLHRAHYDLRHTFSGVASVESSSGEAFHVGKTPIVGQPSIPGGPVRLCPGRIRYFKI
With B1, the Minimum inhibitory concentration in experiment [1] (concentration in μg/mL) is on record as 19.53^§ μg/mL; in experiment [2] (concentration in μg/mL) it was 4.88^§ μg/mL.

B2: rD2BPL3 (recombinant BPL3 lectin obtained by the gene having the repeating structure) (protein, part only; not given: spacer and vector tag, not shown: small tags and cut ends)
chain, part: TDVGSVQVRGLGDRSSCPVKPWTTAQTSAREKVVSVKFDIPYSSTPKVALSLSGMDMDTKYNTRINTSVENLTNEGFDLKVGVWCNTYAYMLDVTYVVVPAPYAAGTDVGSVQVRGLGDRSSCPVKPWTTAQTSAREKVVSVKFDIPYSSTPKVALSLSGMDMDTKYNTRINTSVENLTNEGFDLKVGVWCNTYAYMLDVTYVVVPAPYAAG
On to B2, for which the Minimum inhibitory concentration (inhibition of hemagglutination activity) in experiment [3] amounted to 4.88 µg/mL.

B3: Native BPL3: BPL3 (Bryopsis plumosa lectin) derived from bryopsis plumosa, comparative target (protein)
chain: TDVGSVQVRGLGDRSSCPVKPWTTAQTSAREKVVSVKFDIPYSSTPKVALSLSGMDMDTKYNTRINTSVENLTNEGFDLKVGVWCNTYAYMLDVTYVVVPAPYAAG
modifications: bryopsis plumose-derived BPL3 gene
notes: BPL3 (Bryopsis plumosa lectin) derived from bryopsis plumosa, comparative target
Consider B3, for which, in experiment [4] (setting [5]), the “Glycan giving a strong signal” value is “strong signal for a glycan of Gal-β-1,3-GaINAc-α-Sp” and the “Number of glycans reacted with, of 100 glycans” value came out at 5. For the same molecule, in experiment [4] (glycan array), the “Binding to α-Man-Sp” value is “specifically bound” and the “Binding to β-GlcNAc-Sp” value is on record as “does not react”.
